Reference: paper PMC7531004, “Discovery of gramicidin A analogues with altered activities by multidimensional screening of a one-bead-one-compound library” (Nature Communications, 2020)
Where a SMILES comes first, the peptide text is derived from it. [ ]: non-standard residue; d: D form. The star is where a group is joined. NHCH2CH2OH = OCCN*; For = O=C*

Columns and labels:
[1] = test system: P388 mouse leukemia cells; conditions: 92 h
Procedure, shortened: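 Peptide stocks diluted 250× in growth medium; P388 cells 1 × 10^4 cells/mL final; 37 °C, 5% CO2, 92 h. WST-1 + 1-methoxy PMS, 4 h, A415. Output: % viability.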

[2] = test system: Streptococcus pyogenes SSI-9; experiment: Antibacterial activity assay of bead-derived peptides (three concentrations); format: cell-based; design: key: +++: inhibition by the 640-fold diluted peptide solution; ++: inhibition by the 160-fold diluted solution; +: inhibition by the 40-fold diluted solution; -: no inhibition; conditions: S. pyogenes, bead-derived peptide solution, three concentrations
Procedure, shortened: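 Growth inhibition scored visually as precipitated bacteria after 37 °C, 18 h incubation. Streptococcus pyogenes SSI-9 inoculum of 2 × 10^5 CFU in Ca2+/Mg2+-adjusted Mueller Hinton broth plus 5% laked horse blood; peptides tested at three levels: stock, 4-fold and 16-fold DMSO dilutions.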

[3] = H+/Na+ transport assay of bead-derived peptides (one-point); format: biochemical; design: key: relative activity; mean of two control wells = 1.00; conditions: bead-derived peptide solution, EYPC/EYPG LUVs;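 also: relative to parent gramicidin A activity set to 1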
Procedure, shortened: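 Values are normalized fluorescence, with Triton X-100 defining 100% and untreated LUVs 0%, and the two control wells averaging 1.00. Vesicles carried 1.0 mM pyranine and included egg yolk phosphatidylglycerol. Peptides were incubated with them 30 min at room temperature.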

SMILES: CC(C)C[C@@H](NC(=O)[C@H](C)NC(=O)[C@H](NC(=O)[C@H](C)NC(=O)CNC(=O)[C@@H](NC=O)C(C)C)[C@H](C)O)C(=O)N[C@H](C(=O)N[C@H](CC(C)C)C(=O)N[C@@H](Cc1c[nH]c2ccccc12)C(=O)N[C@@H](C(=O)N[C@@H](Cc1c[nH]c2ccccc12)C(=O)N[C@H](CC(C)C)C(=O)N[C@@H](Cc1c[nH]c2ccccc12)C(=O)N[C@H](CC(C)C)C(=O)N[C@@H](Cc1c[nH]c2ccccc12)C(=O)NCCO)C(C)C)C(C)C [compound 7890] (For-VGA[dT]A[dL]V[dL]W[dV]W[dL]W[dL]W-NHCH2CH2OH)
- cell viability/% [1]: 100.0%
- antibacterial activity [2]: -
- H+/Na+ transport activity normalized against the value of 1 (1.00) [3]: 1.11

SMILES: CC(C)C[C@@H](NC(=O)[C@H](C)NC(=O)CNC(=O)[C@@H](NC=O)C(C)C)C(=O)N[C@@H](C)C(=O)N[C@H](CC(C)C)C(=O)N[C@H](C(=O)N[C@H](CC(C)C)C(=O)N[C@@H](Cc1c[nH]c2ccccc12)C(=O)N[C@H](CC(C)C)C(=O)N[C@@H](Cc1c[nH]c2ccccc12)C(=O)N[C@@H](C(=O)N[C@@H](Cc1c[nH]c2ccccc12)C(=O)N[C@H](CC(C)C)C(=O)N[C@@H](Cc1c[nH]c2ccccc12)C(=O)NCCO)[C@H](C)O)C(C)C [compound 2283] (For-VGA[dL]A[dL]V[dL]W[dL]W[dT]W[dL]W-NHCH2CH2OH)
- cell viability/% [1]: 100.0%
- antibacterial activity [2]: -
- H+/Na+ transport activity normalized against the value of 1 (1.00) [3]: 1.07

SMILES: CC(C)C[C@@H](NC(=O)[C@H](C)NC(=O)[C@H](NC(=O)[C@H](C)NC(=O)CNC(=O)[C@@H](NC=O)C(C)C)C(C)C)C(=O)N[C@H](C(=O)N[C@H](CC(C)C)C(=O)N[C@@H](Cc1c[nH]c2ccccc12)C(=O)N[C@@H](C(=O)N[C@@H](Cc1c[nH]c2ccccc12)C(=O)N[C@H](CC(C)C)C(=O)N[C@@H](Cc1c[nH]c2ccccc12)C(=O)N[C@@H](C(=O)N[C@@H](Cc1c[nH]c2ccccc12)C(=O)NCCO)C(C)C)[C@H](C)O)C(C)C [compound 4232] (For-VGA[dV]A[dL]V[dL]W[dT]W[dL]W[dV]W-NHCH2CH2OH)
- cell viability/% [1]: 93.0%
- antibacterial activity [2]: -
- H+/Na+ transport activity normalized against the value of 1 (1.00) [3]: 1.05

SMILES: CC(C)C[C@@H](NC(=O)[C@H](Cc1c[nH]c2ccccc12)NC(=O)[C@@H](CC(C)C)NC(=O)[C@H](Cc1c[nH]c2ccccc12)NC(=O)[C@@H](CC(C)C)NC(=O)[C@H](Cc1c[nH]c2ccccc12)NC(=O)[C@H](NC(=O)[C@@H](NC(=O)[C@H](NC(=O)[C@H](C)NC(=O)[C@H](NC(=O)[C@H](C)NC(=O)CNC(=O)[C@@H](NC=O)C(C)C)C(C)C)C(C)C)C(C)C)C(C)C)C(=O)N[C@@H](Cc1c[nH]c2ccccc12)C(=O)NCCO [compound 662] (For-VGA[dV]A[dV]V[dV]W[dL]W[dL]W[dL]W-NHCH2CH2OH)
- cell viability/% [1]: 1.5%
- antibacterial activity [2]: +++
- H+/Na+ transport activity normalized against the value of 1 (1.00) [3]: 1.04

SMILES: CC(C)C[C@@H](NC(=O)[C@H](C)NC(=O)CNC(=O)[C@@H](NC=O)C(C)C)C(=O)N[C@@H](C)C(=O)N[C@@H](C(=O)N[C@H](C(=O)N[C@H](CC(C)C)C(=O)N[C@@H](Cc1c[nH]c2ccccc12)C(=O)N[C@@H](C(=O)N[C@@H](Cc1c[nH]c2ccccc12)C(=O)N[C@H](CC(C)C)C(=O)N[C@@H](Cc1c[nH]c2ccccc12)C(=O)N[C@@H](C(=O)N[C@@H](Cc1c[nH]c2ccccc12)C(=O)NCCO)C(C)C)C(C)C)C(C)C)C(C)C [compound 3633] (For-VGA[dL]A[dV]V[dL]W[dV]W[dL]W[dV]W-NHCH2CH2OH)
- cell viability/% [1]: 1.7%
- antibacterial activity [2]: -
- H+/Na+ transport activity normalized against the value of 1 (1.00) [3]: 1.04

SMILES: CC(C)C[C@@H](NC(=O)[C@H](C)NC(=O)[C@H](NC(=O)[C@H](C)NC(=O)CNC(=O)[C@@H](NC=O)C(C)C)C(C)C)C(=O)N[C@H](C(=O)N[C@@H](C(=O)N[C@@H](Cc1c[nH]c2ccccc12)C(=O)N[C@H](CC(C)C)C(=O)N[C@@H](Cc1c[nH]c2ccccc12)C(=O)N[C@H](CC(C)C)C(=O)N[C@@H](Cc1c[nH]c2ccccc12)C(=O)N[C@@H](C(=O)N[C@@H](Cc1c[nH]c2ccccc12)C(=O)NCCO)C(C)C)[C@H](C)O)C(C)C [compound 8984] (For-VGA[dV]A[dL]V[dT]W[dL]W[dL]W[dV]W-NHCH2CH2OH)
- cell viability/% [1]: 57.9%
- antibacterial activity [2]: -
- H+/Na+ transport activity normalized against the value of 1 (1.00) [3]: 1.12

SMILES: CC(C)C[C@@H](NC(=O)[C@H](C)NC(=O)[C@H](NC(=O)[C@H](C)NC(=O)CNC(=O)[C@@H](NC=O)C(C)C)C(C)C)C(=O)N[C@H](C(=O)N[C@@H](C(=O)N[C@@H](Cc1c[nH]c2ccccc12)C(=O)N[C@H](CC(C)C)C(=O)N[C@@H](Cc1c[nH]c2ccccc12)C(=O)N[C@H](CC(C)C)C(=O)N[C@@H](Cc1c[nH]c2ccccc12)C(=O)N[C@H](CC(C)C)C(=O)N[C@@H](Cc1c[nH]c2ccccc12)C(=O)NCCO)C(C)C)C(C)C [compound 9897] (For-VGA[dV]A[dL]V[dV]W[dL]W[dL]W[dL]W-NHCH2CH2OH)
- cell viability/% [1]: 8.1%
- antibacterial activity [2]: +
- H+/Na+ transport activity normalized against the value of 1 (1.00) [3]: 1.04

SMILES: CC(C)C[C@@H](NC(=O)[C@H](C)NC(=O)[C@H](NC(=O)[C@H](C)NC(=O)CNC(=O)[C@@H](NC=O)C(C)C)C(C)C)C(=O)N[C@H](C(=O)N[C@H](CC(C)C)C(=O)N[C@@H](Cc1c[nH]c2ccccc12)C(=O)N[C@@H](C(=O)N[C@@H](Cc1c[nH]c2ccccc12)C(=O)N[C@@H](C(=O)N[C@@H](Cc1c[nH]c2ccccc12)C(=O)N[C@H](CC(C)C)C(=O)N[C@@H](Cc1c[nH]c2ccccc12)C(=O)NCCO)C(C)C)[C@H](C)O)C(C)C [compound 7325] (For-VGA[dV]A[dL]V[dL]W[dT]W[dV]W[dL]W-NHCH2CH2OH)
- cell viability/% [1]: 82.2%
- antibacterial activity [2]: -
- H+/Na+ transport activity normalized against the value of 1 (1.00) [3]: 1.04

SMILES: CC(C)C[C@@H](NC(=O)[C@H](C)NC(=O)CNC(=O)[C@@H](NC=O)C(C)C)C(=O)N[C@@H](C)C(=O)N[C@H](CC(C)C)C(=O)N[C@H](C(=O)N[C@H](CC(C)C)C(=O)N[C@@H](Cc1c[nH]c2ccccc12)C(=O)N[C@@H](C(=O)N[C@@H](Cc1c[nH]c2ccccc12)C(=O)N[C@@H](C(=O)N[C@@H](Cc1c[nH]c2ccccc12)C(=O)N[C@H](CC(C)C)C(=O)N[C@@H](Cc1c[nH]c2ccccc12)C(=O)NCCO)C(C)C)[C@H](C)O)C(C)C [compound 10442] (For-VGA[dL]A[dL]V[dL]W[dT]W[dV]W[dL]W-NHCH2CH2OH)
- cell viability/% [1]: 100.0%
- antibacterial activity [2]: -
- H+/Na+ transport activity normalized against the value of 1 (1.00) [3]: 1.15

SMILES: CNC(=O)C[C@@H](NC(=O)[C@@H](NC(=O)[C@@H](CC(C)C)NC(=O)[C@H](C)NC(=O)[C@@H](CC(C)C)NC(=O)[C@H](C)NC(=O)CNC(=O)[C@@H](NC=O)C(C)C)C(C)C)C(=O)N[C@@H](Cc1c[nH]c2ccccc12)C(=O)N[C@H](CC(C)C)C(=O)N[C@@H](Cc1c[nH]c2ccccc12)C(=O)N[C@H](CC(C)C)C(=O)N[C@@H](Cc1c[nH]c2ccccc12)C(=O)N[C@H](CC(C)C)C(=O)N[C@@H](Cc1c[nH]c2ccccc12)C(=O)NCCO [compound 2444] (For-VGA[dL]A[dL]V[dD](NHMe)W[dL]W[dL]W[dL]W-NHCH2CH2OH)
- cell viability/% [1]: 100.0%
- antibacterial activity [2]: -
- H+/Na+ transport activity normalized against the value of 1 (1.00) [3]: 1.32

SMILES: CNC(=O)C[C@@H](NC(=O)[C@@H](NC(=O)[C@H](NC(=O)[C@H](C)NC(=O)[C@@H](CC(C)C)NC(=O)[C@H](C)NC(=O)CNC(=O)[C@@H](NC=O)C(C)C)C(C)C)C(C)C)C(=O)N[C@@H](Cc1c[nH]c2ccccc12)C(=O)N[C@@H](C(=O)N[C@@H](Cc1c[nH]c2ccccc12)C(=O)N[C@H](CC(C)C)C(=O)N[C@@H](Cc1c[nH]c2ccccc12)C(=O)N[C@@H](C(=O)N[C@@H](Cc1c[nH]c2ccccc12)C(=O)NCCO)C(C)C)C(C)C [compound 5778] (For-VGA[dL]A[dV]V[dD](NHMe)W[dV]W[dL]W[dV]W-NHCH2CH2OH)
- cell viability/% [1]: 77.8%
- antibacterial activity [2]: -
- H+/Na+ transport activity normalized against the value of 1 (1.00) [3]: 1.19

SMILES: CC(C)C[C@@H](NC(=O)[C@H](C)NC(=O)[C@H](NC(=O)[C@H](C)NC(=O)CNC(=O)[C@@H](NC=O)C(C)C)[C@H](C)O)C(=O)N[C@H](C(=O)N[C@H](CC(C)C)C(=O)N[C@@H](Cc1c[nH]c2ccccc12)C(=O)N[C@H](CC(C)C)C(=O)N[C@@H](Cc1c[nH]c2ccccc12)C(=O)N[C@@H](C(=O)N[C@@H](Cc1c[nH]c2ccccc12)C(=O)N[C@@H](C(=O)N[C@@H](Cc1c[nH]c2ccccc12)C(=O)NCCO)C(C)C)C(C)C)C(C)C [compound 569] (For-VGA[dT]A[dL]V[dL]W[dL]W[dV]W[dV]W-NHCH2CH2OH)
- cell viability/% [1]: 100.0%
- antibacterial activity [2]: -
- H+/Na+ transport activity normalized against the value of 1 (1.00) [3]: 1.01

SMILES: CC(C)C[C@@H](NC(=O)[C@H](C)NC(=O)[C@H](NC(=O)[C@H](C)NC(=O)CNC(=O)[C@@H](NC=O)C(C)C)C(C)C)C(=O)N[C@H](C(=O)N[C@@H](C(=O)N[C@@H](Cc1c[nH]c2ccccc12)C(=O)N[C@@H](C(=O)N[C@@H](Cc1c[nH]c2ccccc12)C(=O)N[C@@H](C(=O)N[C@@H](Cc1c[nH]c2ccccc12)C(=O)N[C@H](CC(C)C)C(=O)N[C@@H](Cc1c[nH]c2ccccc12)C(=O)NCCO)C(C)C)C(C)C)[C@H](C)O)C(C)C [compound 4395] (For-VGA[dV]A[dL]V[dT]W[dV]W[dV]W[dL]W-NHCH2CH2OH)
- cell viability/% [1]: 100.0%
- antibacterial activity [2]: -
- H+/Na+ transport activity normalized against the value of 1 (1.00) [3]: 1.07
